Test results: PMC10518257 (Nature Cancer, 2023)
Several values for one entry are separate records, joined by “and”; a condition that tells them apart may be missing. Equal entries are not always repeated. Where two headings read alike, the source gives them in different places.

How the values were obtained:
[1] = system: HBECp53-RET cells (CCDC6-RET fusion); experiment: Growth inhibition (alamarBlue, 96 h); assay type: cell-based, human; conditions: for raw viability signal (Source Data Fig. 3b-c): HBEC-RET, replicate sets; for IC50: Homo sapiens, 96 h, read-out: IC50 for Inhibition of Growth (95% CI), HBECp53-RET, alamarBlue, 96 h
[2] = biological target: T1, panel of 255 (vepafestinib) or 256 (all other inhibitors) recombinant kinases (Homo sapiens, UniProt P22607); experiment: Kinase selectivity profiling at a single concentration (Carna Biosciences); assay type: biochemical
T1 construct: purchased Carna Biosciences

[3] = biological target: T2, panel of 255 (vepafestinib) or 256 (all other inhibitors) recombinant kinases (Homo sapiens, UniProt P35968); experiment: as above; assay type: biochemical; conditions: 17 nM
T2 construct: purchased Carna Biosciences

[4] = biological target: T3, panel of 255 (vepafestinib) or 256 (all other inhibitors) recombinant kinases (Homo sapiens, UniProt P11362); experiment: as above; assay type: biochemical
T3 construct: purchased Carna Biosciences

[5] = biological target: T4, panel of 255 (vepafestinib) or 256 (all other inhibitors) recombinant kinases (Homo sapiens, UniProt Q08345); experiment: as above; assay type: biochemical
T4 construct: purchased Carna Biosciences

[6] = biological target: T5, panel of 255 (vepafestinib) or 256 (all other inhibitors) recombinant kinases (Homo sapiens, UniProt P07949); experiment: as above; assay type: biochemical
T5 construct: purchased Carna Biosciences

[7] = biological target: T6, panel of 255 (vepafestinib) or 256 (all other inhibitors) recombinant kinases (Homo sapiens, UniProt P09619); experiment: as above; assay type: biochemical
T6 construct: purchased Carna Biosciences

[8] = biological target: T7, panel of 255 (vepafestinib) or 256 (all other inhibitors) recombinant kinases (Homo sapiens, UniProt P21802); experiment: as above; assay type: biochemical
T7 construct: purchased Carna Biosciences

[9] = biological target: T8, panel of 255 (vepafestinib) or 256 (all other inhibitors) recombinant kinases (Homo sapiens, UniProt P36888); experiment: as above; assay type: biochemical
T8 construct: purchased Carna Biosciences

[10] = system: LC-2/ad cells; experiment: Growth inhibition (alamarBlue, 96 h); assay type: cell-based, human; conditions: for IC50: Homo sapiens, 96 h, read-out: IC50 for Inhibition of Growth (95% CI); for raw viability signal (Source Data Fig. 3b-c): LC-2/Ad, replicate sets
[11] = biological target: T9, panel of 255 (vepafestinib) or 256 (all other inhibitors) recombinant kinases (Homo sapiens, UniProt Q06418); experiment: Kinase selectivity profiling at a single concentration (Carna Biosciences); assay type: biochemical; conditions: 22 nM
T9 construct: purchased Carna Biosciences

[12] = biological target: T10, panel of 255 (vepafestinib) or 256 (all other inhibitors) recombinant kinases (Homo sapiens, UniProt O14757); experiment: as above; assay type: biochemical; conditions: 22 nM
T10 construct: purchased Carna Biosciences

[13] = biological target: T11, panel of 255 (vepafestinib) or 256 (all other inhibitors) recombinant kinases (Homo sapiens, UniProt Q15375); experiment: as above; assay type: biochemical; conditions: 22 nM
T11 construct: purchased Carna Biosciences

[14] = system: ECLC5 xenografts; experiment: Subcutaneous xenograft efficacy study; conditions: 100 mg/kg QD
[15] = system: LUAD-0057AS1 PDX; experiment: PDX efficacy study; conditions: 50 mg/kg QD
[16] = end of study, individual tumors

T7 sequence (P21802 22-821): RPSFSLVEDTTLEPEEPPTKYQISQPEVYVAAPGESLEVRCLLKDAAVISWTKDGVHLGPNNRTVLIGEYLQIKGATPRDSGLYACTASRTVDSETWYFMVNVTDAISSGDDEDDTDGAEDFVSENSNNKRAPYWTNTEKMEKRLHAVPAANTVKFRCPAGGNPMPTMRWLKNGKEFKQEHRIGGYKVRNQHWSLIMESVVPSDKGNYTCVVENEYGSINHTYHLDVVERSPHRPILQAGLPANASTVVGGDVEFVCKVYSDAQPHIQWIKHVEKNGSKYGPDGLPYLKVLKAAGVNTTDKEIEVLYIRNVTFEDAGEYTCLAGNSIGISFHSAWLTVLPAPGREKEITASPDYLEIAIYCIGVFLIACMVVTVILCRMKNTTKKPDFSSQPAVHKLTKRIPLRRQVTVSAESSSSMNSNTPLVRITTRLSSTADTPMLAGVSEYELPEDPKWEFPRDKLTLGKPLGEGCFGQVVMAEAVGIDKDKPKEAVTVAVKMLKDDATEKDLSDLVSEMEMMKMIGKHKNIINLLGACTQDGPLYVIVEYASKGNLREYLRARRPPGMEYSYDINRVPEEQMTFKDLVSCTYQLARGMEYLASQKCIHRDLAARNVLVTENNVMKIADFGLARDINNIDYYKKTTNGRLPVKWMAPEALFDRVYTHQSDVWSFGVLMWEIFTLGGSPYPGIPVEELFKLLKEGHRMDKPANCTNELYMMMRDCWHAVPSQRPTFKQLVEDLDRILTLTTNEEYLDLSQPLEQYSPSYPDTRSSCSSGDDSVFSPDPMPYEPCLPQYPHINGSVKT
T3 sequence (P11362 22-822): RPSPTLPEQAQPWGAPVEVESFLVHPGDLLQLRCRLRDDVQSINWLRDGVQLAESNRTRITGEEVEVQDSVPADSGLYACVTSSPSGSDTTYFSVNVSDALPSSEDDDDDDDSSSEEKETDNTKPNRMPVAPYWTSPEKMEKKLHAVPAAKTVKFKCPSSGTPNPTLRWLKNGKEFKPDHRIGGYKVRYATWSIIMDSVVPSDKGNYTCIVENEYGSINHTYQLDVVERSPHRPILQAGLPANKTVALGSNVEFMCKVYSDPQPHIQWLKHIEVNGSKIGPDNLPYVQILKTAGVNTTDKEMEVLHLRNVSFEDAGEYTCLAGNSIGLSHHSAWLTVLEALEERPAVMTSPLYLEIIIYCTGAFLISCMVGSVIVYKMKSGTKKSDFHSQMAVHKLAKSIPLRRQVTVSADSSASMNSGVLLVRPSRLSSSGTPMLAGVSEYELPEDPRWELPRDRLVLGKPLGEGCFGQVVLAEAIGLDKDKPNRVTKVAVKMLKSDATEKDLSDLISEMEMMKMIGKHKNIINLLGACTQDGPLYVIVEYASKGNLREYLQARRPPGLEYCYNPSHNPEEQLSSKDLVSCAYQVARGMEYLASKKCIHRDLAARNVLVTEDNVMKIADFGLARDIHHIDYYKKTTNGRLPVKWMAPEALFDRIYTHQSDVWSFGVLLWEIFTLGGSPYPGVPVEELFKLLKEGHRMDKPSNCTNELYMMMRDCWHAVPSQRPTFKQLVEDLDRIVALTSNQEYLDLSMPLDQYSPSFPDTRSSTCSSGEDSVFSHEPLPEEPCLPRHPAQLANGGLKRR
T8 sequence (P36888 27-993): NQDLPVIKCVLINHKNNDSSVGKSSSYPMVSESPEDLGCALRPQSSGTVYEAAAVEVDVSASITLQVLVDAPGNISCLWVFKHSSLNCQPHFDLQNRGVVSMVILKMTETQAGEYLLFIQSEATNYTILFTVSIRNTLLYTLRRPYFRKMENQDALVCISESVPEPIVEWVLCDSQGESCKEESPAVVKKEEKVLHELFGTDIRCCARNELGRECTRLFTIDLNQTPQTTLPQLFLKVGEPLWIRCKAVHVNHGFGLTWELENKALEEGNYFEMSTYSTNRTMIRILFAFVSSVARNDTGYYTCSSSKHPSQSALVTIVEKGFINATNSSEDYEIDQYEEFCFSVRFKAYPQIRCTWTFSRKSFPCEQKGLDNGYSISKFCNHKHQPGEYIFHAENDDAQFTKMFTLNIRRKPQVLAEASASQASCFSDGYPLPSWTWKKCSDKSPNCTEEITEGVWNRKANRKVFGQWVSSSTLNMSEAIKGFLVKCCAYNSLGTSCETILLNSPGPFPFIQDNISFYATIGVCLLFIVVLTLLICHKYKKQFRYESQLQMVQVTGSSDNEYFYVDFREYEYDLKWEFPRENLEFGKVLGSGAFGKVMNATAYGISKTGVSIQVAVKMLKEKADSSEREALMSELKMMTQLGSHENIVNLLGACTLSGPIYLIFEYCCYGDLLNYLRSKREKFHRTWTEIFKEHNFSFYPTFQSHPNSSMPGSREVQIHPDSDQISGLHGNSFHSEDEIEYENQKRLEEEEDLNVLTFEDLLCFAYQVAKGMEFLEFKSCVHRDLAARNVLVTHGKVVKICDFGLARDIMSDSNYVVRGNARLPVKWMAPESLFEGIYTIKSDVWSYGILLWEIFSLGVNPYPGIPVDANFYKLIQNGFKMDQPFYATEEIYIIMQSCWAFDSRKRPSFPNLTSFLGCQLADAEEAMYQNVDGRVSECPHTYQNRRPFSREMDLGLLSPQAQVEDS
T1 sequence (P22607 23-806): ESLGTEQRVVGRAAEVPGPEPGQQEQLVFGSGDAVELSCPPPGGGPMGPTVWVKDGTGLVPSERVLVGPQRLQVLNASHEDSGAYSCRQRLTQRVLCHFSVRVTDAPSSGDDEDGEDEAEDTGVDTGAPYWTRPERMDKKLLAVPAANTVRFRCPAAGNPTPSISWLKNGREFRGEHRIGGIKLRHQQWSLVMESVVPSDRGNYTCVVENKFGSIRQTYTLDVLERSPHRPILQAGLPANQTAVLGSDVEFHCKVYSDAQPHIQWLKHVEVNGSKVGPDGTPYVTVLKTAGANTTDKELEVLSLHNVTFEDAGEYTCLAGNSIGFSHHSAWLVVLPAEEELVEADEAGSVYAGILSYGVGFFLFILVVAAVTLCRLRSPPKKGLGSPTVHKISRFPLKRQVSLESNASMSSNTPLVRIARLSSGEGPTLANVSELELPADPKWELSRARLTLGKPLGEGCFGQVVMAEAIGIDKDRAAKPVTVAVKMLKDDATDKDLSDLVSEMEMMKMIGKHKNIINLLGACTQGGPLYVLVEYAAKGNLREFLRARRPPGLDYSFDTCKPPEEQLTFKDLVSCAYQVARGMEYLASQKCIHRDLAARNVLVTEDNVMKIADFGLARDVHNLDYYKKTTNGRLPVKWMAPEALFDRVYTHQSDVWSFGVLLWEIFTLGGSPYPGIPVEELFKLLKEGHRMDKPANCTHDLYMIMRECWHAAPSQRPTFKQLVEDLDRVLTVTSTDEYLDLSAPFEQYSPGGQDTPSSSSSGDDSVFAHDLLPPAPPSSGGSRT
T5 sequence (P07949 29-1114): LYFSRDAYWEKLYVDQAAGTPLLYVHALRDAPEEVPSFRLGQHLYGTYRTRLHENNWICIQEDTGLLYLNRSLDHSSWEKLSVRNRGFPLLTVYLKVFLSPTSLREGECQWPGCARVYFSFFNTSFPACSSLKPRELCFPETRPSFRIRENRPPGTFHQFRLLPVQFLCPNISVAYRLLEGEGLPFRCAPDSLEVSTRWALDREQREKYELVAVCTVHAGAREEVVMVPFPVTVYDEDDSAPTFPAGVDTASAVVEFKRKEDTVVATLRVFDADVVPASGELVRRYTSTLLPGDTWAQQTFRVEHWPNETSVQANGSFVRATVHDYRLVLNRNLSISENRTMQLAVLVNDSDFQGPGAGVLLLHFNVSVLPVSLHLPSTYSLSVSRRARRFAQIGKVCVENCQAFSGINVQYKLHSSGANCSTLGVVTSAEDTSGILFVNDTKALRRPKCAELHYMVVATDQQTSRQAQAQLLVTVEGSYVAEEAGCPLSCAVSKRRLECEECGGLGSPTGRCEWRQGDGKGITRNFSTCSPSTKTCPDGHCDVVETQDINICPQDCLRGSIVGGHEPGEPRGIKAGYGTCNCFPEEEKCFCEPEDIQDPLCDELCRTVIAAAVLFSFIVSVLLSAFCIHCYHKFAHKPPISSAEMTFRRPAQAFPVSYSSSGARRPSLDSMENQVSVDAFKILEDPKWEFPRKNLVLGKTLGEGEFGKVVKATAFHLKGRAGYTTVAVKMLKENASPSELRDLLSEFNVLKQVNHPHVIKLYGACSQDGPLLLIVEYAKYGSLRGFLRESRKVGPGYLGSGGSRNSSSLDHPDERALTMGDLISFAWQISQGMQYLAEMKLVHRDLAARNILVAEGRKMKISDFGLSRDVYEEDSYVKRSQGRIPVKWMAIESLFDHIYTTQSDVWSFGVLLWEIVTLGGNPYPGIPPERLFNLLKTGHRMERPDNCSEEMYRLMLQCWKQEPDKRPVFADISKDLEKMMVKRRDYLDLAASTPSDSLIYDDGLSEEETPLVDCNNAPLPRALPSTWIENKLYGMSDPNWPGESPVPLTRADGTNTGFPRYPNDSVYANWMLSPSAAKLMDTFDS
T10 sequence (O14757 whole entry): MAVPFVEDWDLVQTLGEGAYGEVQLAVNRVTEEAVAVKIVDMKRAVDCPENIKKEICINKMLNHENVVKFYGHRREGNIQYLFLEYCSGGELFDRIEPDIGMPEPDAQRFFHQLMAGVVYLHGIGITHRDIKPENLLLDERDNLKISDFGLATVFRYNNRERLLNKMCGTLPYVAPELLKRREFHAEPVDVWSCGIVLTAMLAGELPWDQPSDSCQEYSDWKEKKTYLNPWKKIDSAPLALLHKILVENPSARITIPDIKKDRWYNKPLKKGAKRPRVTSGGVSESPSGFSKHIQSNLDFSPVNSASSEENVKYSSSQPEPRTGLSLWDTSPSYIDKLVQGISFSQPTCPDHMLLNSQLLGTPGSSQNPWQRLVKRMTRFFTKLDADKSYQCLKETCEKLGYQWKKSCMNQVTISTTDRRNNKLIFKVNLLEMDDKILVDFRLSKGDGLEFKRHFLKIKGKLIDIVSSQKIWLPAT

Compound	raw viability signal (Source Data Fig. 3b-c) ([1]; 0.01 nM)	raw viability signal (Source Data Fig. 3b-c) ([1]; 0.1 nM)	raw viability signal (Source Data Fig. 3b-c) ([1]; 1 nM)	raw viability signal (Source Data Fig. 3b-c) ([1]; 10 nM)	raw viability signal (Source Data Fig. 3b-c) ([1]; 100 nM)	raw viability signal (Source Data Fig. 3b-c) ([1]; 1000 nM)	raw viability signal (Source Data Fig. 3b-c) ([1]; 10000 nM)	IC50 [1] [nM]	IC50 ([10]; LC-2-ad) [nM]	raw viability signal (Source Data Fig. 3b-c) ([10]; 0.01 nM)	raw viability signal (Source Data Fig. 3b-c) ([10]; 0.1 nM)	raw viability signal (Source Data Fig. 3b-c) ([10]; 1 nM)	raw viability signal (Source Data Fig. 3b-c) ([10]; 10 nM)	raw viability signal (Source Data Fig. 3b-c) ([10]; 100 nM)	raw viability signal (Source Data Fig. 3b-c) ([10]; 1000 nM)	raw viability signal (Source Data Fig. 3b-c) ([10]; 10000 nM)	other results
CO[C@]1(C(=O)N[C@@H](C)c2ccc(-n3cc(F)cn3)nc2)CC[C@H](c2nc(C)cc(Nc3cc(C)[nH]n3)n2)CC1 [Pralsetinib]	15373.7 and 12510.4 and 10530.7 and 16787.4	15070.3 and 13088.9 and 11587.4 and 17702.2	15214.6 and 13110.8 and 10795 and 16054.2	6804.19 and 10276.4 and 9347.81 and 15758.2	3516.93 and 4294.46 and 3038.53 and 6985.58	2132.67 and 2668.84 and 1165.86 and 3483.36	830.793 and 1030.6 and 876.114 and 1589.72	35	18	14336.4 and 23167.3	14242.4 and 23367.8	13261.9 and 22232.1	6314.77 and 17508.9	3979.18 and 8357.34	2225.01 and 2896.43	918.728 and 947.198	% Inhibiton FGFR3 ([2]; 17 nM): 34.3%; % Inhibiton KDR [3]: 27.4%; % Inhibiton FGFR1 ([4]; 17 nM): 57%; % Inhibiton DDR1 ([5]; 17 nM): 72.1%; % Inhibiton RET ([6]; 17 nM): 96.7%; % Inhibiton PDGFRβ ([7]; 17 nM): 69.8%; % Inhibiton FGFR2 ([8]; 17 nM): 29.4%; % Inhibiton FLT3 ([9]; 17 nM): 73.3%
COc1ccc(CN2C3CC2CN(c2ccc(-c4cc(OCC(C)(C)O)cn5ncc(C#N)c45)cn2)C3)cn1 [Selpercatinib]	18093.2 and 9060.84 and 18084.5	17267.5 and 9270.44 and 17759.2	17188.9 and 9066.79 and 17837.1	6462.76 and 8147.32 and 16191.8	3445.11 and 2694.56 and 6209.19	2899.6 and 1772.22 and 5277.83	2192.17 and 1006.02 and 4021.33	26	12	13499 and 23395.2	14768.6 and 22354.3	11358.1 and 22611.3	5849.16 and 13692	4303.48 and 6998.63	4639.86 and 5076.98	1761.41 and 1760.41	% Inhibiton FGFR3 ([2]; 22 nM): 35.9%; % Inhibiton FGFR1 ([4]; 22 nM): 21.4%; % Inhibiton DDR1 ([5]; 22 nM): 18%; % Inhibiton RET ([6]; 22 nM): 98.6%; % Inhibiton PDGFRβ ([7]; 22 nM): 21.7%; % Inhibiton TYRO3 [11]: 38.2%; % Inhibiton CHK1 [12]: 15.2%; % Inhibiton EPHA7 [13]: 26.3%; % Inhibiton FGFR2 ([8]; 22 nM): 44.8%; % Inhibiton FLT3 ([9]; 22 nM): 52.5%
COc1cc2c(Nc3ccc(Br)cc3F)ncnc2cc1OCC1CCN(C)CC1 [Vandetanib]										12607.4 and 20233.4	13108.5 and 20488.5	11956.2 and 19814.6	11578.8 and 17158.6	4528.4 and 9691.17	1439.52 and 1771.38	850.396	Area Under Curve of tumor growth, Mean [14]: -1273; Tumor volume ([14]; day 0, individual animals): 83.83 mm3 (2×) and 88.56 mm3 and 87.03 mm3; Tumor volume ([14]; day 4, individual animals): 55.4 mm3 (2×) and 45.5 mm3 and 53.01 mm3 and 50.68 mm3; Tumor volume ([14]; day 7, individual animals): 42.25 mm3 and 37.7 mm3 and 44.53 mm3 and 41.37 mm3 and 39.37 mm3; Tumor volume ([14]; day 11, individual animals): 38.54 mm3 and 37.7 mm3 and 44.53 mm3 and 33.69 mm3 and 31.89 mm3; Tumor volume ([14]; day 14, individual animals): 36.02 mm3 and 36.86 mm3 and 35.19 mm3 and 28.86 mm3 and 23.59 mm3; Tumor volume ([14]; day 19, individual animals): 34.35 mm3 and 31 mm3 and 35.19 mm3 and 28.86 mm3 and 18.85 mm3; Tumor volume ([14]; day 22, individual animals): 0 mm3 (4×) and 29.39 mm3; Tumor volume ([14]; day 25, individual animals): 0 mm3; Change in Tumor Volume [14, 16]: -100%; IC50 ([10]; LC-2/ad, alamarBlue): 61 nM; Area Under Curve of tumor growth, Mean [15]: -2007; Tumor volume ([15]; day 0, individual animals): 143.69 mm3 (3×) and 139.24 mm3 (2×) and 136.86 mm3 and 132.84 mm3 and 124.41 mm3; Tumor volume ([15]; day 3, individual animals): 79.85 mm3 and 78.99 mm3 (2×) and 80.35 mm3 and 89.72 mm3 and 82.12 mm3 and 83.53 mm3 (2×); Tumor volume ([15]; day 7, individual animals): 65.45 mm3 (5×) and 66.76 mm3 (2×) and 69.46 mm3; Tumor volume ([15]; day 10, individual animals): 52.07 mm3 (2×) and 58.99 mm3 and 57.83 mm3 (3×) and 56.67 mm3 and 49.83 mm3; Tumor volume ([15]; day 14, individual animals): 52.07 mm3 (2×) and 55.52 mm3 and 57.83 mm3 (2×) and 56.67 mm3 and 49.83 mm3; Tumor volume ([15]; day 19, individual animals): 0 mm3; Tumor volume ([15]; day 23, individual animals): 0 mm3; Change in Tumor Volume [15, 16]: -100%
